The nature of the data set: Human HepG2 cell viability assay in 384 well format. It counts as toxicity, cell-based. On the set-up: dose 125 nL, time 70.5 hour; cytotoxicity at 70.5 h: concentration not given beside the values. Particulars: HepG2 cells, read-out: Inhibition.

104 compounds from ChEMBL document CHEMBL3507680, “University of Dundee, Gates Library screen for HepG2 cell viability” can be followed below.

As for `CS(=O)(=O)CCn1ccc(NC(=O)c2c(F)cccc2F)n1`, the cytotoxicity at 70.5 h was -12.1%.

On to `O=S(=O)(N1CCCCC1)N1CCCN(CC2CCCO2)CC1` (centres undefined), for which the cytotoxicity at 70.5 h was 1.43%.

Take `Cn1cc(CNC2CCCOc3c(Cl)cccc32)cn1` (centres undefined): the cytotoxicity at 70.5 h stood at 3.49%.

With `O=S(=O)(N1CCCC1)N1CCN(CC2CCCO2)CC1` (centres undefined), the cytotoxicity at 70.5 h is -3.59%.

As to `CC(C)(C)c1cc(NC(=O)CNC2CCc3ncnn3C2)on1` (centres undefined), the cytotoxicity at 70.5 h is -11.9%.

In the case of `CCOC(C)c1nccn1Cc1noc(CC)n1` (centres undefined), the cytotoxicity at 70.5 h was determined as 16.7%.

With `O=C(CSCc1ccccn1)NCC1CCN(C2CC2)C1` (centres undefined), the cytotoxicity at 70.5 h came to 0.243%.

As to `CCCn1ccnc1SCC(=O)NC(Cc1ccccc1)C(C)=O` (centres undefined), the cytotoxicity at 70.5 h worked out at 1.89%.

In the case of `Cc1cc(N(Cc2cccs2)C2CC2)n2nc(C(F)(F)F)nc2n1`, the cytotoxicity at 70.5 h is -1.76%.

With `CC(C)c1noc(CNc2ccccc2CC(=O)N(C)C)n1`, the cytotoxicity at 70.5 h was -2.98%.

For the compound `Cc1ccc(NCc2ccc(C#N)cc2)cc1-n1cnnn1`, the cytotoxicity at 70.5 h was determined as 10.5%.

`CC(C)(C)c1nc(CN2CCC(N3CCCCC3)CC2)no1`: the cytotoxicity at 70.5 h was -2.12%.

Regarding `Cc1[nH]ncc1CCCNC(=O)N1CCC(CC(N)=O)CC1`, the cytotoxicity at 70.5 h is -0.905%.

On to `Fc1cccc2c1CCC2NCc1ccc(N2CCOCC2)cc1` (centres undefined), for which the cytotoxicity at 70.5 h was 1.27%.

`CN1CCN(C2CCN(Cc3noc(C(C)(C)C)n3)CC2)C1=O`: the cytotoxicity at 70.5 h is 9.12%.

For `CN1CCN(C2CCN(Cc3noc(-c4ccccc4)n3)CC2)C1=O`, the cytotoxicity at 70.5 h is -3.63%.

On to `CC(C)(C)c1n[nH]c(C2CN(CCNC3CCCCC3)CCO2)n1` (centres undefined), for which the cytotoxicity at 70.5 h was -1.09%.

With `CC(C)(C)c1n[nH]c(C2CN(CC3CCC3)CCO2)n1` (centres undefined), the cytotoxicity at 70.5 h was -0.868%.

For `CN(C)C(=O)Cc1ccccc1NCc1noc(-c2ccccc2)n1`, the cytotoxicity at 70.5 h is 2.37%.

For `COc1ccc(C(=O)NS(=O)(=O)c2ccc(CNC(C)=O)s2)cc1`, the cytotoxicity at 70.5 h was -4.22%.

`Cc1nc(C)c(C(=O)N2CCc3ccc(F)cc3C2C)o1` (centres undefined): the cytotoxicity at 70.5 h is -0.841%.

Regarding `O=C(c1cccnc1N1CCCC1)N1CCOC(c2ccccc2)C1` (centres undefined), the cytotoxicity at 70.5 h is -2.27%.

Consider `CCC(O)(CNCc1ccncc1)c1ccc(Br)cc1` (centres undefined), for which the cytotoxicity at 70.5 h was determined as 1.46%.

For the compound `CC(=O)NCc1ccc(S(=O)(=O)NC(=O)c2ccc3c(c2)CCO3)s1`, the cytotoxicity at 70.5 h is -2.05%.

For the compound `CC(C)(C)c1n[nH]c(C2CN(CCc3ccncc3)CCO2)n1` (centres undefined), the cytotoxicity at 70.5 h was found to be 0.424%.

With `Cc1nc(C)c(C(=O)N2Cc3cc(F)ccc3CC2C)o1` (centres undefined), the cytotoxicity at 70.5 h was -3.47%.

`CCOCC(=O)N1CCC(C(O)c2ccc(F)cc2)CC1` (centres undefined): the cytotoxicity at 70.5 h stood at 2.49%.

Turning to `Fc1ccc(CNCc2cc(Br)c3c(c2)OCO3)cc1`, the cytotoxicity at 70.5 h was determined as 7.59%.

On to `FC(F)Oc1ccccc1CNCc1cc(Br)c2c(c1)OCO2`, for which the cytotoxicity at 70.5 h is -7.29%.

Take `COc1ccccc1CC1CCCN(C(=O)c2cn[nH]c2C)C1` (centres undefined): the cytotoxicity at 70.5 h is -10.8%.

For `CC(O)CN(Cc1cccc(C(N)=O)c1)c1ccccc1` (centres undefined), the cytotoxicity at 70.5 h is -7.27%.

Turning to `Oc1cccc(CNCC2CCCO2)c1` (centres undefined), the cytotoxicity at 70.5 h was found to be 10.4%.

In the case of `Cc1ccc(C(=O)NCCS(=O)(=O)N2CCSCC2)n1C`, the cytotoxicity at 70.5 h is -2.8%.

Take `Cc1ccoc1C(=O)NCCS(=O)(=O)N1CCSCC1`: the cytotoxicity at 70.5 h stood at 5.89%.

For `CCc1ccc(C(COC)NC(=O)c2ccc(NC(C)=O)cc2)o1` (centres undefined), the cytotoxicity at 70.5 h was -8.16%.

In the case of `CCc1ccc(C(COC)NC(=O)c2ccc(C(N)=O)cc2)o1` (centres undefined), the cytotoxicity at 70.5 h worked out at 7.28%.

Take `COCCC1(CNC(=O)Nc2ccc(-n3ccnn3)cc2)CCC1`: the cytotoxicity at 70.5 h worked out at 4.76%.

Take `CC1(C)CN(C(=O)c2occc2COc2cccc(C#N)c2)CCO1`: the cytotoxicity at 70.5 h turned out to be 3.19%.

On to `Cc1nc(CN2CCc3c(nc(C4CC4)n3C)C2)nc2ccccc12`, for which the cytotoxicity at 70.5 h is -5.35%.

`Cc1ccc(CN(Cc2cc(C)no2)C2CC2)cc1`: the cytotoxicity at 70.5 h is -3.87%.

Turning to `CC(CNC(=O)c1cnccn1)Oc1ccc(F)cc1` (centres undefined), the cytotoxicity at 70.5 h is -8.73%.

On to `CC(NC(=O)CN1CCN(c2cccc(Cl)c2)CC1)c1ccco1` (centres undefined), for which the cytotoxicity at 70.5 h was -5.94%.

Regarding `N#Cc1csc(CNCCOc2ccc(Cl)cn2)c1`, the cytotoxicity at 70.5 h was -5.85%.

For the compound `CCCN(Cc1ccccc1O)S(=O)(=O)C(C)CC` (centres undefined), the cytotoxicity at 70.5 h is -5.52%.

In the case of `COCCSCC(=O)NCc1ccc(N(C)C)cc1`, the cytotoxicity at 70.5 h was -0.963%.

For `CC(=O)c1cc(C(=O)N2CCN(C)Cc3ccccc32)n(C)c1`, the cytotoxicity at 70.5 h was -3%.

For the compound `Cc1nc(CN2CCCN(Cc3nc4ccccc4o3)CC2)no1`, the cytotoxicity at 70.5 h is -8.61%.

As to `CC(c1ccc(S(N)(=O)=O)cc1)N(C)C(=O)c1ccccc1I` (centres undefined), the cytotoxicity at 70.5 h is -5.97%.

With `CCc1ccc(S(=O)(=O)Nc2ccn(CC(=O)OC)n2)cc1`, the cytotoxicity at 70.5 h is -4.63%.

`Cc1ccc(N(CC(=O)N2CCCCC2)C(=O)C2CCCO2)cc1` (centres undefined): the cytotoxicity at 70.5 h was -1.14%.

On to `CC(C)COCCNC(=O)NC1CCCN(c2cnn(C)c2)C1` (centres undefined), for which the cytotoxicity at 70.5 h was -0.131%.

For the compound `O=C(NCCOc1ccc(Cl)cn1)Nc1cccnc1`, the cytotoxicity at 70.5 h is -0.774%.

As for `O=C(NCCOc1ccc(Cl)cn1)Nc1ccccn1`, the cytotoxicity at 70.5 h came out at 0.428%.

For the compound `O=C(c1cnc(-c2ccco2)s1)N1CCOc2ncccc21`, the cytotoxicity at 70.5 h was -1.16%.

Take `CCCc1ncc(C(=O)N2CCOc3ncccc32)s1`: the cytotoxicity at 70.5 h is -2.81%.

Regarding `CN1CCOC(CNCCOc2cccc(C#N)c2)C1` (centres undefined), the cytotoxicity at 70.5 h was -7.36%.

As for `CC(C)(C)OCCN1CCCC1c1nc(Cc2ccc(F)cc2)no1` (centres undefined), the cytotoxicity at 70.5 h is 11.6%.

`Cc1nc2n(n1)CC(NCCc1cccs1)CC2` (centres undefined): the cytotoxicity at 70.5 h stood at 0.958%.

Regarding `Cc1nccn1-c1ccc(C(C)NCCC(C)C)cc1` (centres undefined), the cytotoxicity at 70.5 h is -1.85%.

In the case of `CCc1nc(C)c(C(C)N(C)CCc2ccncc2)s1` (centres undefined), the cytotoxicity at 70.5 h was 0.87%.

Consider `O=C(Cc1ccc(F)cc1)NCCNS(=O)(=O)c1ccc(F)c(F)c1`, for which the cytotoxicity at 70.5 h is -1.6%.

For the compound `O=C(C1CC1)N1CCC(c2nc(-c3ccccc3)n[nH]2)CC1`, the cytotoxicity at 70.5 h was -1.09%.

Turning to `CN(Cc1ccncc1)C(=O)Nc1cnn(CC(N)=O)c1`, the cytotoxicity at 70.5 h was -4.03%.

As for `Fc1cc(CNCCn2cccn2)ccc1-n1cncn1`, the cytotoxicity at 70.5 h is 1.79%.

In the case of `COc1ccc(F)cc1C(=O)N1CCn2c(nnc2C(F)(F)F)C1`, the cytotoxicity at 70.5 h is -5.57%.

Turning to `O=S(=O)(c1cc2ccccc2o1)N1CCCC1`, the cytotoxicity at 70.5 h is 4.69%.

Regarding `O=C(NCCNc1ccccn1)NC1CCOC2(CCCCC2)C1` (centres undefined), the cytotoxicity at 70.5 h was found to be 3.54%.

In the case of `Cc1nccn1-c1ccc(C(C)NCc2cc[nH]n2)cc1` (centres undefined), the cytotoxicity at 70.5 h was -0.399%.

Consider `O=C(c1cccc(F)c1F)N1CCn2c(nnc2C(F)(F)F)C1`, for which the cytotoxicity at 70.5 h is -4.83%.

Turning to `CCc1cnc(CN(C)C(C)C(=O)N2CCc3ccccc3C2)s1` (centres undefined), the cytotoxicity at 70.5 h was 0.736%.

As to `Cc1nn(C)c(C)c1CCNC(C)c1ccc(-n2ccnc2C)cc1` (centres undefined), the cytotoxicity at 70.5 h was -2.24%.

For the compound `CC(C(=O)N1CCc2ccccc2C1)N(C)Cc1cscn1` (centres undefined), the cytotoxicity at 70.5 h is -4.2%.

Consider `COCCCSc1ccc(NCc2cscn2)cc1`, for which the cytotoxicity at 70.5 h is -2.43%.

`O=C(c1ccc(F)cc1Cl)N1CCn2c(nnc2C(F)(F)F)C1`: the cytotoxicity at 70.5 h stood at 1.4%.

On to `Cc1nc(CNC(C)c2cccc(S(=O)(=O)N(C)C)c2)no1` (centres undefined), for which the cytotoxicity at 70.5 h worked out at 16.5%.

Take `Cc1nc(CNC(C)c2ccc(S(=O)(=O)N(C)C)cc2)no1` (centres undefined): the cytotoxicity at 70.5 h is -2.76%.

Take `Cc1cc(C(=O)NCC2(N(C)C)CCCC2)c(C)n1-c1cccnc1`: the cytotoxicity at 70.5 h is -0.689%.

As to `CC(C)CCC(=O)NCc1ccc(N2CCCCC2)cc1`, the cytotoxicity at 70.5 h was -9.32%.

Take `Cc1ccc2ncn(CC(O)CN3CCC(C)CC3)c(=O)c2c1` (centres undefined): the cytotoxicity at 70.5 h was 19.7%.

Regarding `N#Cc1ccc(NCC(=O)Nc2ccn(Cc3cccnc3)n2)cc1`, the cytotoxicity at 70.5 h was -9.9%.

On to `COCC(=O)N1CCN(c2ccc(C(=O)OC)cc2)CC1C` (centres undefined), for which the cytotoxicity at 70.5 h turned out to be 20.1%.

Take `COCCOCCNC(=O)c1ccc(N2CCC(C)=N2)cc1`: the cytotoxicity at 70.5 h is -3.96%.

On to `N#Cc1ccc(NCC(=O)Nc2ncn(Cc3cccnc3)n2)cc1`, for which the cytotoxicity at 70.5 h is -6.44%.

Turning to `N#Cc1cccnc1N[C@@H]1c2ccccc2C[C@@H]1O`, the cytotoxicity at 70.5 h is -16.4%.

Regarding `CCC(CO)NC(=O)NCc1cc(C#N)ccc1F` (centres undefined), the cytotoxicity at 70.5 h was -9.99%.

Regarding `CC(NC(=O)c1ccnc(C2CC2)n1)C1(N2CCOCC2)CCCC1` (centres undefined), the cytotoxicity at 70.5 h is -4.36%.

In the case of `Cn1nccc1CNS(=O)(=O)c1cc(F)ccc1Br`, the cytotoxicity at 70.5 h is -6.89%.

Regarding `CCNC(=O)NC(C)c1nc(-c2ccc(Br)cc2)no1` (centres undefined), the cytotoxicity at 70.5 h is -8.74%.

For `CNC(=O)NC(C)c1nc(-c2ccc(Br)cc2)no1` (centres undefined), the cytotoxicity at 70.5 h was 9.87%.

`N#Cc1ccc(C(=O)NCC2(N3CCOCC3)CCCC2)nc1`: the cytotoxicity at 70.5 h is -4.06%.

As to `CCCNC(=O)COc1ccc(-c2ccccc2)nc1`, the cytotoxicity at 70.5 h is -5.84%.

With `CCN(CC)c1ncc(CNC2CCc3nc(C(C)C)nn3C2)s1` (centres undefined), the cytotoxicity at 70.5 h is -5.99%.

In the case of `Cc1cccc(CNC(=O)Nc2ccn(CCCC(=O)N(C)C)n2)c1`, the cytotoxicity at 70.5 h is -7.9%.

As for `Cc1nc(C(=O)N(C)CC(=O)N(C)C)nn1-c1ccccc1C(C)C`, the cytotoxicity at 70.5 h amounted to 33.6%.

As for `CC(C)(C)c1noc(CCC(=O)N2CCN(Cc3ccc(Cl)s3)CC2)n1`, the cytotoxicity at 70.5 h amounted to 25.8%.

With `Cc1c(C(C)NC(=O)C2CCCCC2)cnn1C` (centres undefined), the cytotoxicity at 70.5 h is 5.03%.

Consider `CN(C)C(=O)Cn1cc(C(=O)NCCc2cccc(Cl)c2Cl)nn1`, for which the cytotoxicity at 70.5 h came out at 2.52%.

`N#Cc1cccc(CN2C(=O)c3ccccc3CS2(=O)=O)c1`: the cytotoxicity at 70.5 h was -2.45%.

With `Cc1nc2n(n1)CC(NCc1ccnc(-c3ccccc3)n1)CC2` (centres undefined), the cytotoxicity at 70.5 h was -2.5%.

For the compound `Cc1c(C(=O)NCCN2C(=O)CCC2=O)sc2ccc(F)cc12`, the cytotoxicity at 70.5 h was found to be 2.84%.

Consider `Cc1c(Br)cccc1C(=O)NCC1CCCNC1` (centres undefined), for which the cytotoxicity at 70.5 h stood at 2.2%.

For the compound `Cc1c(Br)cccc1C(=O)NCC1CCNCC1`, the cytotoxicity at 70.5 h worked out at 8.92%.

As to `Clc1ccc(C2(CNC3=NCCN3)CC2)cc1`, the cytotoxicity at 70.5 h was 10%.

For the compound `Fc1ccc(C2(CNC3=NCCN3)CCCC2)cc1`, the cytotoxicity at 70.5 h is 3.33%.
